This is an account of results in US20240002424A1, “HEXOSAMINE COMPOUNDS AND METHODS THEREOF” (National Institute of Immunology, priority 2021, published 2024).

Holding throughout (assay type): cell-based, human
The test system of assay [1] is Jurkat cells. The assay is described as follows: GalNAz expression on the cell surface, co-incubation with Ac4GalNAz (3), DBCO-Cy5 flow cytometry. The following applies: 50 μM co-incubated with 3 (50 μM). How it is done:
Effect of ManNAc analogues on NeuAz and GalNAz expression: Jurkat cells were incubated under various conditions, namely, (i) D, 1c, 3, 1a, or 1b alone, (ii) 1a or 1b in combination with 1c, (iii) 1a or 1b in combination with 3. After 24 h, cells were harvested, washed, labelled using DBCO-Cy5 ([…]), processed, and analysed by flow cytometry as mentioned above
The high degree of selectivity of ManNAc analogues for processing by the sialic acid biosynthetic pathway was further confirmed by competitive studies using Ac4GalNAz (3) which is known to be processed through both the mucin-type O-glycosylation (MTOG) and β-O-GlcNAc-ylation pathways. The expression of NeuAz by 1c was suppressed by 1a or 1b (50 μM) to an extent of 50% upon co-incubation. By contrast, no reduction in the expression of N-azidoacetyl-D-galactosamine (GalNAz) on the cell surface was noticed upon co-incubation of 3 (50 μM) with 1a or 1b (50 μM) (FIG. 6E and FIG. 7C).
In general terms: In flow cytometry, cells or beads pass a laser one at a time.

Assay [2] deals with HL-60 cells. The assay is described as follows: Cell surface sialyl-Lewis-X (CD15s) by anti-CD15s (CSLEX1) flow cytometry. The following applies: 50 μM, 24 h. The protocol:
Effect of ManNAc analogues on the expression of sialyl-Lewis-X and Lewis-X: HL-60 cells (3.0×10^5 cells/mL in 2.0 mL complete medium in 6 well plate) were treated with D (vehicle), 1a, 1b, 1c, 1d, 1e, 1f, or 1g (50 PM), along with untreated (U) control. After 24 h, cells were harvested and washed with PBS (3×0.5 mL, 3000×g, 3.0 min at room temperature). Prior to last wash, cells were counted using Z2 coulter counter and aliquoted at 2.5×10^5 cells per sample and stained with either mouse anti-human CD15s (CSLEX1) (1.25 μg/mL) or mouse anti-human CD15 (HI98) (2.5 μg/mL) in HEPES/CaCl2) buffer (30 mM HEPES, 110 mM NaCl, 10 mM KCl, 2 mM MgCl2, 10 mM glucose, 1.5 mM CaCl2) containing 0.1% bovine serum albumin, pH 7.3) (total volume of 100 μL) for 30 min at 4° C. Cells were washed with HEPES/CaCl2 buffer (2×0.5 mL) and stained with AlexaFluor488-conjugated anti-mouse IgM (2.5 μg/mL) (for both CD15s and CD15) in 100 μL HEPES/CaCl2 for 30 min at 4° C. Cells were washed with HEPES/CaCl2 buffer (2×0.5 mL), resuspended in PBS (0.2 mL), treated with PI (2.5 μg/ml) and analysed by BD FACSVerse. Samples treated with (i) isotype antibodies followed by secondary antibody and (ii) secondary antibody alone were prepared as controls. Single Cells were gated for PI-negative population for 10,000 events and analysed by flow cytometry. Two replicate samples were prepared for each condition and each sample was counted twice. Three independent experiments were performed. Data was analysed using FlowJo V10. For plotting graph and calculation of significant probability ‘p’ values, two-way ANOVA with Dunnett's multiple comparison tests was employed in GraphPad Prism 8.
Time course of CD15s expression: HL-60 cells (3.0×10^5 cells/mL in 2.5 mL complete medium in 6-well plates) were incubated with D, 1a, 1b, or 1d (50 mM). At each time point, from day 1 to day 6, the cells were harvested from the entire contents of the well, washed, and aliquoted to 5.0×10^5 cells per sample, and immuno-stained using anti-CD15s (CSLEX1) antibody as mentioned above. On day 3, 4, and 5 complete media (1.0 mL) was added to each remaining well in order to compensate for media exhaustion. No contents were removed from the well during the period.

Assay [3] concerns HL-60 cells. The assay is described as follows: Far-western blot of total lysates with biotinylated MAL-II. The following applies: HL-60 lysates; 50 μM, 72 h. The protocol:
(§1) After 72 h, cells were harvested and lyzed in RIPA buffer containing PIC. Protein concentration in the soluble fraction was estimated using Bradford assay, subjected to 10% SDS-PAGE, blotted onto nitrocellulose membranes (constant current 250 mA, 3 h, 4° C.). Membranes were blocked using 2% w/v gelatin (5.0 mL) in 0.1% PBS-T at room temperature. After 1h, membranes were incubated with either bMAL-II (1:2000, stock conc. 1.0 mg/mL) or bSNA (1:5000, stock conc. 2.0 mg/mL) in 0.1% PBS-T (5.0 mL) at room temperature. After 1 h, membranes were washed using 0.1% PBS-T (6×5.0 mL, 5.0 min), followed by incubation with HRPconjugated avidin (1:50000, stock conc. 2.0 mg/mL) in 0.1% PBS-T (5.0 mL). After 30 min, membranes were washed using 0.1% PBS-T (6×5.0 mL, 5.0 min). Blots were developed using enhanced chemiluminescence substrate and photographic films. Blots using anti-β-actin (as mentioned above) were performed in parallel as loading controls. At least two independent replicate experiments were performed.

Assay [4] relates to HL-60 cells. The assay is described as follows: Far-western blot of total lysates with biotinylated SNA. The following applies: HL-60 lysates; 50 μM, 72 h. The protocol: as §1
For assay [5], the system named is HL-60 cells. Nature of the assay: MAL-II lectin binding on intact cells by flow cytometry. To be noted: 50 μM, 24 h.
Assay [6] relates to Jurkat cells. Nature of the assay: NeuAz expression on the cell surface by SPAAC with DBCO-Cy5 and flow cytometry, competition with Ac4ManNAz (1c). The following applies: analogue 10 μM first, 1c 50 μM added at 12 h, estimation at 48 h.
In assay [7] the test system is HL-60 cells. The assay is described as follows: Cell surface sialyl-Lewis-X (CD15s) by anti-CD15s (CSLEX1) flow cytometry.

Take `CC(=O)OC[C@H]1O[C@H](OC(C)=O)[C@@H](NC(=O)C2CC2)[C@@H](OC(C)=O)[C@@H]1OC(C)=O` [Compound 1a, 1,3,4,6-tetra-O-acetyl-2-cyclopropanoylamino-2-deoxy-α-D-mannopyranose]: the “reduction in expression of GalNAz on the cell surface” value in assay [1] was “no reduction”. For the same molecule, the “increase in binding of CSLEX1 antibody (sLeX) compared to controls” value in assay [2] is recorded as roughly 2.5 fold. For the same molecule, the “MAL-II epitopes in lectin blot” value in assay [3] is on record as “slight increase”. Moreover, the “SNA epitopes in lectin blot compared to controls” value in assay [4] is “significant reduction”. Moreover, the “MAL-II binding on intact cells compared to untreated cells” value in assay [5] was “significant gain”. In addition, the “suppression of NeuAz expression, delayed addition of 1c” value in assay [6] is 30%.

As for `CC(=O)OC[C@H]1OC(OC(C)=O)[C@@H](NC(=O)C2CCC2)[C@@H](OC(C)=O)[C@@H]1OC(C)=O` (stereo partly drawn) [Compound 1b, (3S,4R,5S,6R)-6-(acetoxymethyl)-3-(cyclobutanecarboxamido)tetrahydro-2H-pyran-2,4,5-triyl triacetate], in assay [1], the “reduction in expression of GalNAz on the cell surface” value was “no reduction”. Also, in assay [2], the “increase in binding of CSLEX1 antibody (sLeX), in words” value is reported as “nearly a four-fold increase”. The “MAL-II epitopes in lectin blot” value in assay [3] was “slight increase”. Besides, in assay [4], the “SNA epitopes in lectin blot compared to controls” value is on record as “significant reduction”. For the same molecule, the “MAL-II binding on intact cells compared to untreated cells” value in assay [5] is “significant gain”. Moreover, in assay [6], the “suppression of NeuAz expression, delayed addition of 1c” value is listed as 50%. In addition, the “maximum increase in sLeX levels on day 2” value in assay [7] (single dosage 50 μM, day 2) is reported as 3.0 fold. Further, in assay [7] (single dosage 50 μM, day 6), the “sLeX levels by day 6 (in words)” value is “returned to normal levels” and the “sLeX levels on day 6, fold higher” value was “approximately 2.3 fold”. Besides, the “day of peak sLeX expression” value in assay [7] (single dosage 50 μM, time course day 1 to day 6) was found to be 2 days.

For the molecule `CC(=O)NC1C(OC(C)=O)OC(COC(C)=O)[C@@H](OC(C)=O)[C@@H]1OC(C)=O` (stereo partly drawn) [Compound 1d, 1,3,4,6-tetra-O-acetyl-2-acetylamino-2-deoxy-α/β-D-mannopyranose], the “MAL-II epitopes in lectin blot” value in assay [3] is on record as “below detection limit”. Moreover, the “change in sLeX levels in time course (in words)” value in assay [7] (50 μM, time course) is on record as “no change”.
